Reference: patent publication US20240391862A1, “(1,4,5-TRISUBSTITUTED-1H-PYRAZOL-3-YL)OXY-2-ALKOXY ALKYL ACIDS AND THEIR DERIVATIVES, THEIR SALTS AND THEIR USE AS HERBICIDAL AGENTS” (Bayer AKtiengesellschaft, priority 2021, published 2024)

Experiments:
VIOTR = assay: Post-emergence herbicidal effect, greenhouse pot test; type: in vivo, Viola tricolor
Source text: (§1) • ALOMY: Alopecurus myosuroides SETVI: Setaria viridis • AVEFA: Avena fatua POLCO: Fallopia convolvulus • AMARE: Amaranthus retroflexus ECHCG: Echinochloa crus-galli • LOLRJ: Lolium rigidum STEME: Stellaria media • VERPE: Veronica persica MATIN: Tripleurospermum inodorum • DIGSA: Digitaria sanguinalis ABUTH: Abutylon threophrasti • TRZAS: Triticum aestivum VIOTR: Viola tricolor • BRSNW: Brassica napus ZEAMX: Zea mays • PHBPU: Ipomoea purpurea GLXMA: Glycine max • ORYSA: Oryza sativa HORMU: Hordeum murinum
(§2) Seeds of monocotyledonous and dicotyledonous weeds and crop plants are placed in sandy loam in plastic or organic planting pots, covered with soil and cultivated in a greenhouse under controlled growth conditions. 2 to 3 weeks after sowing, the trial plants are treated at the one-leaf stage. The compounds of the invention, formulated in the form of wettable powders (WP) or as emulsion concentrates (EC), are then sprayed onto the green parts of the plants as aqueous suspension or emulsion with addition of 0.5% additive at a water application rate of 600 l/ha (converted). After the test plants have been kept in the greenhouse under optimum growth conditions for about 3 weeks, the activity of the preparations is rated visually in comparison to untreated controls. For example, 100% activity=the plants have died, 0% activity=like control plants.
(§3) Tables 20a to 38c below show the effects/crop compatibilities of selected compounds of the general formula (I) on various harmful plants at an application rate corresponding to 20 to 320 g/ha, which were obtained by the trial procedure specified above.

KCHSC = assay: as above; type: in vivo
Procedure: as §2, with “plants. Tables 20a to 38c below show the effects/crop compatibilities of selected compounds of the general formula (I) on various harmful plants at an application rate corresponding to 20 to 320 g/ha, which were obtained by the trial procedure specified above.” for “plants.”

AVEFA = assay: as above; type: in vivo, Avena fatua; conditions: visual rating about 3 weeks after treatment; for Post-emergence effect against AVEFA: 320 g/ha
Source text: as §1, §2, §3

ZEAMX = assay: Post-emergence herbicidal effect and crop plant compatibility, greenhouse pot test; type: in vivo, Zea mays; conditions: 20 g/ha, one-leaf stage, rated visually after about 3 weeks vs untreated controls
Source text: as §1, §2, §3

DIGSA = assay: Post-emergence herbicidal effect, greenhouse pot test; type: in vivo, Digitaria sanguinalis; conditions: visual rating about 3 weeks after treatment
Source text: as §1, §2, §3

PHBPU = assay: as above; type: in vivo, Ipomoea purpurea
Source text: as §1, §2, §3

VERPE = assay: as above; type: in vivo, Veronica persica
Source text: as §1, §2, §3

ABUTH = assay: as above; type: in vivo, Abutilon theophrasti; conditions: visual rating about 3 weeks after treatment
Source text: as §1, §2, §3

AMARE = assay: as above; type: in vivo, Amaranthus retroflexus; conditions: visual rating about 3 weeks after treatment; for Post-emergence effect against AMARE: 320 g/ha
Source text: as §1, §2, §3

ECHCG = assay: as above; type: in vivo, Echinochloa crus-galli
Source text: as §1, §2, §3

SETVI = assay: as above; type: in vivo, Setaria viridis
Source text: as §1, §2, §3

POLCO = assay: as above; type: in vivo, Fallopia convolvulus; conditions: 320 g/ha
Source text: as §1, §2, §3

ALOMY = assay: as above; type: in vivo, Alopecurus myosuroides; conditions: visual rating about 3 weeks after treatment; for Post-emergence effect against ALOMY: 320 g/ha
Source text: as §1, §2, §3

MATIN = assay: as above; type: in vivo, Tripleurospermum inodorum
Source text: as §1, §2, §3

LOLRI = assay: as above; type: in vivo, Lolium rigidum; conditions: Lolium rigidum, 504 h, 320 g/ha, read-out: Post-emergence effect against LOLRI in %
Source text: as §1, §2, §3

For COC(=O)CCOC(=O)C(OC)Oc1nn(-c2ncccc2F)c(-c2ccc(F)nc2)c1C1CC1 (single isomer, unassigned) [Example I-80], the “Post-emergence effect against VIOTR in %” value (VIOTR; 80 g/ha) was 80%, the “Post-emergence effect against VIOTR in %” value (VIOTR; 320 g/ha) was 90% and the “Post-emergence effect against KCHSC in %” value (KCHSC; 20 g/ha) was 90%. For the same molecule, the “Post-emergence effect against KCHSC in %” value (KCHSC; 80 g/ha) was 90%, the “Post-emergence effect against KCHSC in %” value (KCHSC; 320 g/ha) was 90% and the “Post-emergence effect against AVEFA” value (AVEFA) was 90%. The “Post-emergence effect at 20 g/ha against ZEAMX in %” value (ZEAMX) was 20%, the “Post-emergence effect against DIGSA” value (DIGSA; 80 g/ha) was 80% and the “Post-emergence effect against DIGSA” value (DIGSA; 320 g/ha) was 90%. For the same molecule, the “Post-emergence effect against PHBPU in %” value (PHBPU; 80 g/ha) was 90%, the “Post-emergence effect against PHBPU in %” value (PHBPU; 320 g/ha) was 90% and the “Post-emergence effect against VERPE in %” value (VERPE; 80 g/ha) was 80%. The “Post-emergence effect against VERPE in %” value (VERPE; 320 g/ha) was 90%, the “Post-emergence effect against ABUTH” value (ABUTH; 80 g/ha) was 80% and the “Post-emergence effect against ABUTH” value (ABUTH; 320 g/ha) was 80%. For the same molecule, the “Post-emergence effect against AMARE” value (AMARE) was 80%, the “Post-emergence effect against ECHCG” value (ECHCG; 20 g/ha, visual rating about 3 weeks after treatment) was 90% and the “Post-emergence effect against ECHCG in %” value (ECHCG; 80 g/ha) was 90%. The “Post-emergence effect against ECHCG in %” value (ECHCG; 320 g/ha) was 90%, the “Post-emergence effect against SETVI in %” value (SETVI; 80 g/ha) was 90% and the “Post-emergence effect against SETVI in %” value (SETVI; 320 g/ha) was 90%. The “Post-emergence effect against POLCO in %” value (POLCO) was 90% and the “Post-emergence effect against ALOMY” value (ALOMY) was 90%.

With CCOC(=O)C(OC)Oc1nn(-c2ccccc2F)c(-c2ccc(F)nc2)c1Br (stereo not shown) [Example I-23] the “Post-emergence effect against VIOTR in %” value (VIOTR; 320 g/ha) was 80%, the pest or weed control at 20 g/ha (VIOTR; Viola tricolor, 504 h, 20 g/ha, read-out: Post-emergence effect against VIOTR in %) was 80% and the pest or weed control at 80 g/ha (VIOTR; Viola tricolor, 504 h, 80 g/ha, read-out: Post-emergence effect against VIOTR in %) was 80%. For the same molecule, the “Post-emergence effect against AVEFA” value (AVEFA) was 80%, the pest or weed control at 80 g/ha (AVEFA; Avena fatua, 504 h, 80 g/ha, read-out: Post-emergence effect against AVEFA) was 80% and the “Post-emergence effect against DIGSA” value (DIGSA; 320 g/ha) was 90%. The pest or weed control at 80 g/ha (DIGSA; Digitaria sanguinalis, 504 h, 80 g/ha, read-out: Post-emergence effect against DIGSA) was 90%, the “Post-emergence effect against PHBPU in %” value (PHBPU; 320 g/ha) was 90% and the pest or weed control at 80 g/ha (PHBPU; Ipomoea purpurea, 504 h, 80 g/ha, read-out: Post-emergence effect against PHBPU in %) was 80%. For the same molecule, the “Post-emergence effect against VERPE in %” value (VERPE; 80 g/ha) was 90%, the “Post-emergence effect against VERPE in %” value (VERPE; 320 g/ha) was 90% and the pest or weed control at 20 g/ha (VERPE; Veronica persica, 504 h, 20 g/ha, read-out: Post-emergence effect against VERPE in %) was 80%. The “Post-emergence effect against AMARE” value (AMARE) was 90%, the pest or weed control at 80 g/ha (AMARE; Amaranthus retroflexus, 504 h, 80 g/ha, read-out: Post-emergence effect against AMARE) was 80% and the “Post-emergence effect against ECHCG in %” value (ECHCG; 320 g/ha) was 90%. The pest or weed control at 20 g/ha (ECHCG; Echinochloa crus-galli, 504 h, 20 g/ha, visual rating about 3 weeks after treatment, read-out: Post-emergence effect against ECHCG) was 80%, the pest or weed control at 80 g/ha (ECHCG; Echinochloa crus-galli, 504 h, 80 g/ha, read-out: Post-emergence effect against ECHCG in %) was 80% and the “Post-emergence effect against SETVI in %” value (SETVI; 320 g/ha) was 90%. The pest or weed control at 80 g/ha (SETVI; Setaria viridis, 504 h, 80 g/ha, read-out: Post-emergence effect against SETVI in %) was 80%, the “Post-emergence effect against MATIN in %” value (MATIN; 320 g/ha) was 90% and the pest or weed control at 20 g/ha (MATIN; Tripleurospermum inodorum, 504 h, 20 g/ha, read-out: Post-emergence effect against MATIN in %) was 80%. For the same molecule, the pest or weed control at 80 g/ha (MATIN; Tripleurospermum inodorum, 504 h, 80 g/ha, read-out: Post-emergence effect against MATIN in %) was 80%, the pest or weed control at 320 g/ha (LOLRI) was 90% and the pest or weed control at 320 g/ha (POLCO; Fallopia convolvulus, 504 h, read-out: Post-emergence effect against POLCO in %) was 80%. For the same molecule, the “Post-emergence effect against ALOMY” value (ALOMY) was 90% and the pest or weed control at 80 g/ha (ALOMY; Alopecurus myosuroides, 504 h, 80 g/ha, read-out: Post-emergence effect against ALOMY) was 90%.
